Experiments:
Assay type in all cases: in vivo
Setaria faberi (SETFA) [1] = assay: Post-emergence biological efficacy, glasshouse pot test; details: 312 h
How it was run: (§1)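 Pot-grown weeds were sprayed 8 days after sowing with test compound in acetone/water (50:50) with 0.5% Tween 20 at 1000 or 250 g/ha. Glasshouse at 24/16° C day/night, 14 h light, 65% humidity. Damage scored 0-100 (100 = total damage) after 13 days.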

[2] = tested on: Ipomea hederaceae (IPOHE); assay: as above; details: Ipomoea hederacea, 312 h
How it was run: as §1

[3] = tested on: Amaranthus retoflexus (AMARE); assay: as above; details: Amaranthus retroflexus, 312 h
How it was run: as §1

[4] = tested on: Echinochloa crus-galli (ECHCG); assay: as above; details: 312 h
How it was run: as §1

[5] = tested on: Alopecurus myosuroides (ALOMY); assay: as above; details: 312 h
How it was run: as §1

Solanum nigrum (SOLNI) [6] = assay: as above; details: 312 h
How it was run: as §1

Setaria faberi (SETFA) [7] = assay: Pre-emergence biological efficacy, glasshouse pot test; details: 312 h
How it was run: (§2)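 One day after sowing in standard soil, pots were sprayed with compound in acetone/water (50:50) with 0.5% Tween 20, at 1000 or 250 g/ha. Plants grew at 24/16° C day/night, 14 h light, 65% humidity. Damage was scored after 13 days (0 = none, 100 = total).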

[8] = tested on: Ipomea hederaceae (IPOHE); assay: as above; details: Ipomoea hederacea, 312 h
How it was run: as §2

[9] = tested on: Amaranthus retoflexus (AMARE); assay: as above; details: Amaranthus retroflexus, 312 h
How it was run: as §2

[10] = tested on: Echinochloa crus-galli (ECHCG); assay: as above; details: 312 h
How it was run: as §2

[11] = tested on: Alopecurus myosuroides (ALOMY); assay: as above; details: 312 h
How it was run: as §2

Solanum nigrum (SOLNI) [12] = assay: as above; details: 312 h
How it was run: as §2

[13] = post-emergence, 1,000 g/ha, evaluated after 13 days (100=total damage; 0=no damage), read-out: Percentage damage caused to weed species, SETFA
[14] = post-emergence, 1,000 g/ha, evaluated after 13 days (100=total damage; 0=no damage), read-out: Percentage damage caused to weed species, IPOHE
[15] = post-emergence, 1,000 g/ha, evaluated after 13 days (100=total damage; 0=no damage), read-out: Percentage damage caused to weed species, AMARE
[16] = post-emergence, 1,000 g/ha, evaluated after 13 days (100=total damage; 0=no damage), read-out: Percentage damage caused to weed species, ECHCG
[17] = post-emergence, 1,000 g/ha, evaluated after 13 days (100=total damage; 0=no damage), read-out: Percentage damage caused to weed species, ALOMY
[18] = post-emergence, 1,000 g/ha, evaluated after 13 days (100=total damage; 0=no damage), read-out: Percentage damage caused to weed species, SOLNI
[19] = pre-emergence, 1,000 g/ha, evaluated after 13 days (100=total damage; 0=no damage), read-out: Percentage damage SETFA
[20] = pre-emergence, 1,000 g/ha, evaluated after 13 days (100=total damage; 0=no damage), read-out: Percentage damage IPOHE
[21] = pre-emergence, 1,000 g/ha, evaluated after 13 days (100=total damage; 0=no damage), read-out: Percentage damage AMARE
[22] = pre-emergence, 1,000 g/ha, evaluated after 13 days (100=total damage; 0=no damage), read-out: Percentage damage ECHCG
[23] = pre-emergence, 1,000 g/ha, evaluated after 13 days (100=total damage; 0=no damage), read-out: Percentage damage ALOMY
[24] = pre-emergence, 1,000 g/ha, evaluated after 13 days (100=total damage; 0=no damage), read-out: Percentage damage SOLNI
[25] = Rate 1,000 g/ha, post-emergence spray, evaluated after 13 days (100=total damage to plant; 0=no damage to plant), read-out: Percentage damage caused to weed species, post-emergence, SETFA
[26] = Rate 1,000 g/ha, post-emergence spray, evaluated after 13 days (100=total damage to plant; 0=no damage to plant), read-out: Percentage damage caused to weed species, post-emergence, IPOHE
[27] = Rate 1,000 g/ha, post-emergence spray, evaluated after 13 days (100=total damage to plant; 0=no damage to plant), read-out: Percentage damage caused to weed species, post-emergence, AMARE
[28] = Rate 1,000 g/ha, post-emergence spray, evaluated after 13 days (100=total damage to plant; 0=no damage to plant), read-out: Percentage damage caused to weed species, post-emergence, ECHCG
[29] = Rate 1,000 g/ha, post-emergence spray, evaluated after 13 days (100=total damage to plant; 0=no damage to plant), read-out: Percentage damage caused to weed species, post-emergence, ALOMY
[30] = Rate 1,000 g/ha, post-emergence spray, evaluated after 13 days (100=total damage to plant; 0=no damage to plant), read-out: Percentage damage caused to weed species, post-emergence, SOLNI
[31] = pre-emergence, rate 1,000 g/ha, evaluated after 13 days (100=total damage to plant; 0=no damage), read-out: Percentage damage caused to weed species, SETFA
[32] = pre-emergence, rate 1,000 g/ha, evaluated after 13 days (100=total damage to plant; 0=no damage), read-out: Percentage damage caused to weed species, IPOHE
[33] = pre-emergence, rate 1,000 g/ha, evaluated after 13 days (100=total damage to plant; 0=no damage), read-out: Percentage damage caused to weed species, AMARE
[34] = pre-emergence, rate 1,000 g/ha, evaluated after 13 days (100=total damage to plant; 0=no damage), read-out: Percentage damage caused to weed species, ECHCG
[35] = pre-emergence, rate 1,000 g/ha, evaluated after 13 days (100=total damage to plant; 0=no damage), read-out: Percentage damage caused to weed species, ALOMY
[36] = pre-emergence, rate 1,000 g/ha, evaluated after 13 days (100=total damage to plant; 0=no damage), read-out: Percentage damage caused to weed species, SOLNI

| SMILES | pest or weed control at 1000 g/ha (Setaria faberi (SETFA) [1]; [13]) | pest or weed control at 1000 g/ha [2, 14] | pest or weed control at 1000 g/ha [3, 15] | pest or weed control at 1000 g/ha [4, 16] | pest or weed control at 1000 g/ha [5, 17] | pest or weed control at 1000 g/ha (Solanum nigrum (SOLNI) [6]; [18]) | pest or weed control at 1000 g/ha (Setaria faberi (SETFA) [7]; [19]) | pest or weed control at 1000 g/ha [8, 20] | pest or weed control at 1000 g/ha [9, 21] | pest or weed control at 1000 g/ha [10, 22] | pest or weed control at 1000 g/ha [11, 23] | pest or weed control at 1000 g/ha (Solanum nigrum (SOLNI) [12]; [24]) | pest or weed control at 1000 g/ha (Setaria faberi (SETFA) [1]; [25]) | pest or weed control at 1000 g/ha [2, 26] | pest or weed control at 1000 g/ha [3, 27] | pest or weed control at 1000 g/ha [4, 28] | pest or weed control at 1000 g/ha [5, 29] | pest or weed control at 1000 g/ha (Solanum nigrum (SOLNI) [6]; [30]) | pest or weed control at 1000 g/ha (Setaria faberi (SETFA) [7]; [31]) | pest or weed control at 1000 g/ha [8, 32] | other results |
| --- | --- | --- | --- | --- | --- | --- | --- | --- | --- | --- | --- | --- | --- | --- | --- | --- | --- | --- | --- | --- | --- |
| COC(=O)c1nc(C2CC2)nc(NCC2CCC(C#N)CC2)c1Cl (stereo not drawn) [Compound 4-51, 5-Chloro-4-[(4-cyanocyclohexyl)methylamino]-2-cyclopropyl-6-methoxycarbonyl-pyrimidine] | 50% | 60% | 50% | 20% | 10% | 50% | 0% | 50% | 30% | 0% | 0% | 10% | – | – | – | – | – | – | – | – | – |
| O=C(O)c1nc(C2CC2)nc(NCc2ccccc2)c1Cl [Compound 1-60, 5-Chloro-2-cyclopropyl-4-phenylmethyamino pyrimidtne-6-carboxylic acid] | 90% | 100% | 100% | 70% | 50% | 90% | 0% | 100% | 90% | 20% | 20% | 90% | – | – | – | – | – | – | – | – | – |
| COC(=O)c1nc(C2CC2)nc(NCc2cccc([N+](=O)[O-])c2)c1Cl [Compound 4-91, 5-Chloro-2-cyclopropyl-6-methoxycarbonyl-4-(3-nitrophenyl-methylamino)-pyrimidine] | 90% | 100% | 100% | 80% | 50% | 100% | 20% | 60% | 50% | 20% | 10% | 50% | – | – | – | – | – | – | – | – | – |
| COC(=O)c1nc(C2CC2)nc(N(CCC#N)Cc2ccccc2)c1Cl [Compound 161-60, 5-Chloro-4-[N-(2-cyanoethyl)-N-phenylmethyl-amino]-2-cyclopropyl-6-methoxycarbonyl-pyrimidine] | – | – | – | – | – | – | – | – | – | – | – | – | 50% | 70% | 90% | 50% | 20% | 80% | 0% | 0% | pest or weed control at 1000 g/ha [9, 33]: 0%; pest or weed control at 1000 g/ha [10, 34]: 0%; pest or weed control at 1000 g/ha [11, 35]: 0%; pest or weed control at 1000 g/ha (Solanum nigrum (SOLNI) [12]; [36]): 0% |
| COC(=O)c1nc(C2CC2)nc(N(C)Cc2ccc(N)cc2)c1Cl [Compound 5-86, 4-[N-(4-aminophenylmethyl)-N-methyl-amino]-5-chloro-2-cyclopropyl-6-methoxycarbonyl-pyrimidine] | – | – | – | – | – | – | – | – | – | – | – | – | 90% | 100% | 100% | 70% | 40% | 90% | 30% | 100% | pest or weed control at 1000 g/ha [9, 33]: 100%; pest or weed control at 1000 g/ha [10, 34]: 50%; pest or weed control at 1000 g/ha [11, 35]: 40%; pest or weed control at 1000 g/ha (Solanum nigrum (SOLNI) [12]; [36]): 100% |
